# Measured values from US8648113B2, “Mixture and compounds from mycelia of Antrodia camphorata and use thereof” (Simpson Biotech Co., Ltd., priority 2004, dated 2014).
# Values joined by “and” are separate entries in the source; they are usually repeats but may differ in a detail not shown here. Equal entries are not always repeated. Marks after values point to notes of the source that are not given here.
# Legend:
# [1] = system: Long Evans derived rats, carrageenan-induced paw edema; assay: Inflammation, Carrageenan in rats (hind paw edema); type: in vivo, rat; settings: 150 mg/kg PO; for Paw Volume Diff: R.P. minus L.P.; for Paw Volume L.P.: left (not injected) hindpaw; for Paw Volume R.P.: right (injected) hindpaw, 3 hours
# Procedure: Hind paw edema, as a measure of inflammation, was recorded 3 hours after carrageenan administration using a plethysmometer with water cell (25 mm diameter). Reduction of hind paw edema by 30 percent or more (30%) indicates significant acute anti-inflammatory activity. […] Reduction of hindpaw edema by 30 percent or more (30%), shown in parenthesis, indicates significant acute anti-inflammatory activity. • 4. […] Anticancer Research 19: 1027-1032, 1999)
# [2] = system: B16-F0 murine melanoma cells; assay: Tumor, Syngeneic, Melanoma, B16-F0 Cell in C57BL/6J mice; settings: B16-F0 in C57BL/6J mice, 2 mg/kg × 6 IP; for Survival Time, Days of Post-treatment: monitored to day 45
# [3] = system: Wistar derived male or female rats; assay: Cholinergic Agonism, Central/Peripheral in rats (chewing, salivation); type: in vivo, rat; set-up: key to Peripheral: Salivation: +: exhibiting salivation; settings: 30 mg/kg IP
# [4] = system: ICR derived male mice on high fat diet; assay: Cholesterol, Serum (Total, HDL, Total/HDL Ratio), Diet-Induced in mice; type: in vivo, mouse; settings: 100 mg/kg × 3 PO
# Procedure: Groups of 5 ICR derived male mice weighing 22±2 g were kept on a high fat diet (g/100 g: coconut oil, 8; cholesterol, 1.0; cholic acid, 0.3; lard 2; standard chow 88.7) for 7 days to induce hypercholesterolemia. Test substance was administered orally on days 5, 6 and 7. After fasting overnight, serum was obtained from each mouse and assayed for total cholesterol (Total), high density lipoprotein (HDL) and percent change in Total/HDL. A decrease of 20 percent or more (20%) in serum Total or increase of 20 percent or more (≧20%) in serum HDL or decrease of 40% or more (≧40%) in the Total/HDL ratio relative to vehicle treated control animals is considered significant.
# Vehicle, test substance or reference positive compound was administered orally (PO) on days 5, 6 and 7 after being fed a high cholesterol diet. Twenty-four hours after the third dose, the overnight-fasted test animals were sacrificed for assessing serum total cholesterol (Total) and high density lipoprotein (HDL). Decrease of 20 percent or more (20%) in serum Total or increase of 20 percent or more (20%) in serum HDL or decrease of 40% or more (40%) in the Total/HDL ratio is considered significant. • 2. Hepatic Injury, D-Galactosamine (Wrobel et al., J. Med. Chem. 41: 1084, 1998)
# [5] = system: LLC (Lewis lung carcinoma) cell line; assay: Cytotoxic assay, in vitro LLC tumor cell assay (SRB method); settings: for 50% Growth Inhibition (ED50): SRB method
# [6] = Ave. of 3 rats (Tables 12 and 13: two experiments), 150 mg/kg
# [7] = individual rats (Tables 12 and 13: two experiments), 150 mg/kg
# [8] = 30-60 min after dosing, individual animals
# [9] = positive in 2 or more of 3 = activity
compound,measurement,setting,value
CC(=O)Oc1ccccc1C(=O)O [Aspirin],Paw Volume Diff,[1]; [6],50 ×0.01 ml and 52 ×0.01 ml
same,Paw Volume Diff,[1]; [7],50 ×0.01 ml and 44 ×0.01 ml and 57 ×0.01 ml and 43 ×0.01 ml and 48 ×0.01 ml and 65 ×0.01 ml
same,Paw Volume L.P.,[1]; Ave. of 3 rats (Tables 12 and 13: two experiments),103 ×0.01 ml
same,Paw Volume L.P.,[1]; [7],102 ×0.01 ml and 106 ×0.01 ml and 103 ×0.01 ml and 101 ×0.01 ml and 104 ×0.01 ml
same,Paw Volume R.P.,[1]; [6],154 ×0.01 ml and 155 ×0.01 ml
same,Paw Volume R.P.,[1]; [7],152 ×0.01 ml and 146 ×0.01 ml and 163 ×0.01 ml and 149 ×0.01 ml and 169 ×0.01 ml
CO[C@@]12[C@H](COC(N)=O)C3=C(C(=O)C(C)=C(N)C3=O)N1C[C@@H]1N[C@@H]12 [Mitomycin],Survival Time T/C (%),[2],125* %
same,"Tumor Weight T/C(%), Day 1",[2],100%
same,"Tumor Weight T/C(%), Day 8",[2],0* %
same,"Tumor Weight T/C(%), Day 11",[2],16* %
same,"Tumor Weight T/C(%), Day 15",[2],27* %
same,"Tumor Weight T/C(%), Day 18",[2],32* %
same,"Tumor Weight T/C(%), Day 22",[2],25* %
same,"Body Weight, Day 1",[2]; Mean ± SEM,21.4 ± 1.1 g
same,"Body Weight, Day 8",[2]; Mean ± SEM,22.2 ± 0.8 g
same,"Body Weight, Day 11",[2]; Mean ± SEM,22.0 ± 1.1 g
same,"Body Weight, Day 15",[2]; Mean ± SEM,23.0 ± 1.0 g
same,"Body Weight, Day 18",[2]; Mean ± SEM,24.0 ± 1.1 g
same,"Body Weight, Day 22",[2]; Mean ± SEM,26.3 ± 1.9 g
same,"Tumor Weight, Day 1",[2]; Mean ± SEM,0 mg
same,"Tumor Weight, Day 8",[2]; Mean ± SEM,0 ± 0 mg
same,"Tumor Weight, Day 11",[2]; Mean ± SEM,34 ± 15 mg
same,"Tumor Weight, Day 15",[2]; Mean ± SEM,119 ± 44 mg
same,"Tumor Weight, Day 18",[2]; Mean ± SEM,391 ± 142 mg
same,"Tumor Weight, Day 22",[2]; Mean ± SEM,587 ± 260 mg
same,"Survival Time, Days of Post-treatment",[2]; Mean ± SEM,34.0 ± 4.7 days
same,"Body Weight, Day 8",[2]; individual mice,20 g
same,"Body Weight, Day 15",[2]; individual mice,20 g
same,"Body Weight, Day 22",[2]; individual mice,30 g
same,"Tumor Weight, Day 1",[2]; individual mice,0 mg
same,"Tumor Weight, Day 8",[2]; individual mice,0 mg
same,"Body Weight, Day 1","[2]; individual mice, 2 mg/kg",25 g and 22 g (2×) and 19 g (2×)
same,"Body Weight, Day 8","[2]; individual mice, 2 mg/kg",25 g and 22 g (2×) and 21 g
same,"Body Weight, Day 11","[2]; individual mice, 2 mg/kg",26 g and 22 g (2×) and 21 g and 19 g
same,"Body Weight, Day 15","[2]; individual mice, 2 mg/kg",25 g (2×) and 21 g and 24 g
same,"Body Weight, Day 18","[2]; individual mice, 2 mg/kg",24 g and 27 g and 22 g and 26 g and 21 g
same,"Body Weight, Day 22","[2]; individual mice, 2 mg/kg",27 g (2×) and 21 g and Died
same,"Tumor Weight, Day 11","[2]; individual mice, 2 mg/kg",0 mg (2×) and 64 mg and 68 mg and 41 mg
same,"Tumor Weight, Day 15","[2]; individual mice, 2 mg/kg",36 mg and 136 mg and 0 mg and 213 mg and 207 mg
same,"Tumor Weight, Day 18","[2]; individual mice, 2 mg/kg",256 mg and 849 mg and 0 mg and 525 mg and 327 mg
same,"Tumor Weight, Day 22","[2]; individual mice, 2 mg/kg",437 mg and 1248 mg and 0 mg and 663 mg and Died
same,"Survival Time, Days of Post-treatment","[2]; individual mice, 2 mg/kg",45^a day (2×) and 28 day and 30 day and 22 day
COC(=O)C1=CCCN(C)C1 [Arecoline-HBR],Central: Chewing,[3]; [8],+ (exhibiting more than 10 seconds of chewing behavior (mouth and/or tongue movements) measured cumulatively)
same,Peripheral: Salivation,[3]; [8],+
same,Central: Score (positive animals of 3),[3]; [9],(3/3)
same,Peripheral: Score (positive animals of 3),[3]; [9],(3/3)
CC(C)(Oc1ccc(CCNC(=O)c2ccc(Cl)cc2)cc1)C(=O)O [Benzafibrate],HDL Ave.,[4]; Ave. of 5 mice,113
same,Total (serum total cholesterol) Ave.,[4]; Ave. of 5 mice,228
same,Total/HDL Ave.,[4]; Ave. of 5 mice,2.02
same,HDL Indiv.,"[4]; individual mice, 100 mg/kg",91 and 120 and 133 and 123 and 97
same,Total (serum total cholesterol) Indiv.,"[4]; individual mice, 100 mg/kg",230 and 214 and 225 and 231 and 242
same,Total/HDL Indiv,"[4]; individual mice, 100 mg/kg",2.53 and 1.78 and 1.69 and 1.88 and 2.49
same,HDL % Dce,[4]; relative to vehicle,(43) %
same,Total % Dce,[4]; relative to vehicle,(37) %
same,Total/HDL % Dce,[4]; relative to vehicle,(56) %
"CC(C)=CCOc1ccc(C2=C(CC(C)C)C(=O)NC2=O)cc1 [Compound 2, 3-Isobutyl-4-[4-(3-methyl-2-butenyloxy)phenyl]-1H-pyrrole-2,5-dione]",cytotoxic activity (in words),[5],cytotoxic
same,50% Growth Inhibition (ED50),[5],3.6 µg/mL
COc1cccc2c1C(=O)c1c(O)c3c(c(O)c1C2=O)C[C@@](O)(C(=O)CO)C[C@@H]3O[C@H]1C[C@H](N)[C@H](O)[C@H](C)O1 [Adriamycin],50% Growth Inhibition (ED50),[5],0.14 µg/mL
